The values below come from patent US6372804B1, “Noxious-insect repellent” (Kanebo, Ltd., priority 1991, dated 2002).

The subject of one assay is imagoes of the tiger mosquito, Aedes albopictus. In words: noxious-insect repellency test (treated forearm in a cage of tiger mosquitoes, percent repellency from biting marks). The assay is classed as in vivo. The following applies: content 0.05% (wt. %) in 40 wt. % ethanol aqueous solution; an hour after application. On the procedure:
In each example, the noxious-insect repellency test was conducted as follows:
Test method of noxious-insect repelling effect and durability thereof In order to assess the repelling effect against imagoes of the tiger mosquito, Aedes albopictus, the following test was conducted at a room temperature of 30° C. and a relative humidity of 70% in an air-conditioned room. 10 ml each of test samples was applied to left and right forearms. Each treated forearm was introduced into a wire gauze cage (20 cm L.×15 cm Dia.) containing 50 female and 50 male tiger mosquitoes 5-7 days old after eclosion, for 15 minutes to afford time for biting. The assessment was repeated 30 minutes, 1 hour, 2 hours, 4 hours and 6 hours after the test sample was applied. The number of marks made by biting within each biting time was counted and a percent repellency was calculated using the following formula:
Percent repellency=(X−Y)/X×100 (%)
X: the number of the marks made by biting when the test sample was not applied,
Y: the number of the marks made by biting when the test sample was applied.
In turn, `CC(C)C1CCC(C)C(CO)C1O` (stereo not shown) [HMMO, 2-hydroxymethyl-menthol] came in with a Percent repellency of 18%.

The same assay, now with this note: content 0.1% (wt. %) in 40 wt. % ethanol aqueous solution; an hour after application.
`CC1CCC(C(C)(C)O)C(=O)C1C` (stereo not shown) [8-hydroxy-2-methyl-p-menthan-3-one] had a Percent repellency of 30%.
Consider `CC(C)C1CCC(C)C(CO)C1O` (stereo not shown) [HMMO, 2-hydroxymethyl-menthol], for which the Percent repellency is 48%.

Staying with this assay, now noted: content 1% (wt. %) in 40 wt. % ethanol aqueous solution; an hour after application.
With `CC1CCC(C(C)(C)O)C(=O)C1C` (stereo not shown) [8-hydroxy-2-methyl-p-menthan-3-one], the Percent repellency came to 70%.
Same read-out and setting: for `CC(C)C1CCC(C)C(CO)C1O` (stereo not shown) [HMMO, 2-hydroxymethyl-menthol] the value was 78%.

Staying with this assay, now noted: content 3% (wt. %) in 40 wt. % ethanol aqueous solution; an hour after application.
Regarding `CC1CCC(C(C)(C)O)C(=O)C1C` (stereo not shown) [8-hydroxy-2-methyl-p-menthan-3-one], the Percent repellency stood at 94%.
Still for that read-out and setting: for `CC(C)C1CCC(C)C(CO)C1O` (stereo not shown) [HMMO, 2-hydroxymethyl-menthol] the value was 92%.

Still in this assay, the particulars now being: lotion or milky lotion containing the compound, tiger mosquito imagoes.
Regarding `CC(O)C1CCCCCCC1O` (stereo not shown) [2-(1-hydroxyethyl)-cyclooctanol], the “noxious-insect repelling effect and durability (result in words)” value was “excellent noxious-insect repelling effect and durability”.
Consider `CC1CCC(O)C(C(C)O)C1` (stereo not shown) [2-(1-hydroxyethyl)-4-methyl-cyclohexanol], for which the “noxious-insect repelling effect and durability (result in words)” value is “excellent noxious-insect repelling effect and durability”.
On to `CC1CCC(C(C)(C)O)C(O)C1C` (stereo not shown) [MMD, p-menthane-2-methyl-3,8-diol], for which the “noxious-insect repelling effect and durability (result in words)” value is “excellent noxious-insect repelling effect and durability”.
The same measure, in the same setting: with `CC(O)C1C2CCC(C)(C1O)C2(C)C` (stereo not shown) [3-(1-hydroxyethyl)-borneol] the entry was “excellent noxious-insect repelling effect and durability”; with `CC(C)C1CC(C)C(O)C(CO)C1` (stereo not shown) [2-hydroxymethyl-4-isopropyl-6-methyl-cyclohexanol], “excellent noxious-insect repelling effect and durability”.
For the molecule `CCCCC(O)C1CC(C)CCC1=O` (stereo not shown) [2-(1-hydroxyamyl)-4-methyl-cyclohexanone], the “noxious-insect repelling effect and durability (result in words)” value was “excellent noxious-insect repelling effect and durability”.
Still for that read-out and setting: for `CCCC(O)C1C(O)CCC1CC` (stereo not shown) [2-(1-hydroxybutyl)-3-ethyl-cyclopentanol] the value was “excellent noxious-insect repelling effect and durability”.
With p-menthane-2-ethyl-3,8-diol, the “noxious-insect repelling effect and durability (result in words)” value is “excellent noxious-insect repelling effect and durability”.
Still for that read-out and setting: with `CC(O)C1CCCCCC1=O` (stereo not shown) [2-(1-hydroxyethyl)-cycloheptanone] the entry was “excellent noxious-insect repelling effect and durability”.
With `CC(O)C1C(O)CCC(C)C1C` (stereo not shown) [2-(1-hydroxyethyl)-3,4-dimethyl-cyclohexanol], the “noxious-insect repelling effect and durability (result in words)” value is “excellent noxious-insect repelling effect and durability”.
For the molecule `CCCCCC(O)C1C(=O)C2(C)CCC1C2(C)C` (stereo not shown) [3-(1-hydroxyhexyl)-camphor, reference compound], the “noxious-insect repelling effect and durability (result in words)” value is on record as “does not exhibit the repelling effect”.
Same read-out and setting: with `CCCCCCCCC1(CO)CCCC1O` (stereo not shown) [2-hydroxymethyl-2-octyl-cyclopentanol] the entry was “excellent noxious-insect repelling effect and durability”; with `CC(O)C1CCCCCCCCC1O` (stereo not shown) [2-(1-hydroxyethyl)-cyclodecanol], “excellent noxious-insect repelling effect and durability”; with `OCC1CCCCCCC1O` (stereo not shown) [2-hydroxymethyl-cyclooctanol], “excellent noxious-insect repelling effect and durability”.
Regarding `CC(C)C1(CO)CCCCC1O` (stereo not shown) [2-hydroxymethyl-2-isopropyl-cyclohexanol], the “noxious-insect repelling effect and durability (result in words)” value is “excellent noxious-insect repelling effect and durability”.
The same measure, in the same setting: with `CC(C)C(O)C1C2CCC(C)(C1O)C2(C)C` (stereo not shown) [3-(1-hydroxy-2-methylpropyl)-borneol] the entry was “excellent noxious-insect repelling effect and durability”.
Still for that read-out and setting: for `CCCC(O)C1C2CCC(C)(C1O)C2(C)C` (stereo not shown) [3-(1-hydroxybutyl)-borneol] the value was “excellent noxious-insect repelling effect and durability”; for p-menthane-2-hexyl-3,8-diol, “excellent noxious-insect repelling effect and durability”; for `CCC(O)C1CC(C)CCC1O` (stereo not shown) [2-(1-hydroxypropyl)-4-methyl-cyclohexanol], “excellent noxious-insect repelling effect and durability”.
Still for that read-out and setting: with `CC12CCC(C(CO)C1=O)C2(C)C` (stereo not shown) [3-(1-hydroxymethyl)-camphor] the entry was “excellent noxious-insect repelling effect and durability”; with `CCC(O)C1C(=O)C2(C)CCC1C2(C)C` (stereo not shown) [3-(1-hydroxypropyl)-camphor], “excellent noxious-insect repelling effect and durability”; with `CCCC(O)C1C(=O)CCC1CC` (stereo not shown) [2-(1-hydroxybutyl)-3-ethyl-cyclopentanone], “excellent noxious-insect repelling effect and durability”.
Take `CC(C)C(O)C1C(=O)C2(C)CCC1C2(C)C` (stereo not shown) [3-(1-hydroxy-2-methylpropyl)-camphor]: the “noxious-insect repelling effect and durability (result in words)” value was “excellent noxious-insect repelling effect and durability”.
On the same count and under the same terms, with `CC(O)C1C(=O)C2(C)CCC1C2(C)C` (stereo not shown) [3-(1-hydroxyethyl)-camphor] the entry was “excellent noxious-insect repelling effect and durability”; with `CC1CCC(=O)C(CO)C1C` (stereo not shown) [2-hydroxymethyl-3,4-dimethyl-cyclohexanone], “excellent noxious-insect repelling effect and durability”; with `CCCCCCCCCCCC1(CO)CCCC1O` (stereo not shown) [2-hydroxymethyl-2-undecyl-cyclopentanol], “excellent noxious-insect repelling effect and durability”.
Still for that read-out and setting: for `CC(C)C1CCC(C)C(CO)C1O` (stereo not shown) [HMMO, 2-hydroxymethyl-menthol] the value was “excellent noxious-insect repelling effect and durability”; for `CC1CCC(=O)C(CO)C1` (stereo not shown) [2-hydroxymethyl-4-methyl-cyclohexanone], “excellent noxious-insect repelling effect and durability”.
As for `CC1CC(C(C)C)CC(CO)C1=O` (stereo not shown) [2-hydroxymethyl-4-isopropyl-6-methyl-cyclohexanone], the “noxious-insect repelling effect and durability (result in words)” value is “excellent noxious-insect repelling effect and durability”.
Same read-out and setting: for `CC1CCC(=O)C(C(C)O)C1` (stereo not shown) [2-(1-hydroxyethyl)-4-methyl-cyclohexanone] the value was “excellent noxious-insect repelling effect and durability”; for `CCCCCCCCCCCC1(CO)CCCCC1O` (stereo not shown) [2-hydroxymethyl-2-undecyl-cyclohexanol], “excellent noxious-insect repelling effect and durability”.
With `CCC1(CO)CCCC1O` (stereo not shown) [2-hydroxymethyl-2-ethyl-cyclopentanol], the “noxious-insect repelling effect and durability (result in words)” value is “excellent noxious-insect repelling effect and durability”.
As for `CCC(O)C1C2CCC(C)(C1O)C2(C)C` (stereo not shown) [3-(1-hydroxypropyl)-borneol], the “noxious-insect repelling effect and durability (result in words)” value was “excellent noxious-insect repelling effect and durability”.
Still for that read-out and setting: with `CC(O)C1CCCCCCC1=O` (stereo not shown) [2-(1-hydroxyethyl)-cyclooctanone] the entry was “excellent noxious-insect repelling effect and durability”; with `CC(O)C1CCCCCCCCCCC1=O` (stereo not shown) [2-(1-hydroxyethyl)-cyclododecanone], “excellent noxious-insect repelling effect and durability”.
As for `CC(O)C1C(=O)CCC(C)C1C` (stereo not shown) [2-(1-hydroxyethyl)-3,4-dimethyl-cyclohexanone], the “noxious-insect repelling effect and durability (result in words)” value is “excellent noxious-insect repelling effect and durability”.
Same read-out and setting: for `O=C1CCCCCCC1CO` (stereo not shown) [2-hydroxymethyl-cyclooctanone] the value was “excellent noxious-insect repelling effect and durability”; for `CCC1CC(=O)C(CO)C1` (stereo not shown) [2-hydroxymethyl-4-ethyl-cyclopentanone], “excellent noxious-insect repelling effect and durability”.
Consider `C=C1C(C)CCC(C(C)(C)O)C1O` (stereo not shown) [MMED, p-menthane-2-methylene-3,8-diol], for which the “noxious-insect repelling effect and durability (result in words)” value is “excellent noxious-insect repelling effect and durability”.
On the same count and under the same terms, with `CC1CCC(C(C)(C)O)C1=O` (stereo not shown) [2-(1-hydroxyisopropyl)-5-methyl-cyclopentanone] the entry was “excellent noxious-insect repelling effect and durability”; with `CCCCCCCCC1(CO)CCCCC1O` (stereo not shown) [2-hydroxymethyl-2-octyl-cyclohexanol], “excellent noxious-insect repelling effect and durability”; with `O=C1CCCCCCCCCCC1CO` (stereo not shown) [2-hydroxymethyl-cyclododecanone], “excellent noxious-insect repelling effect and durability”.
Same read-out and setting: for `CC(C)C1CCC(C)C(CO)C1=O` (stereo not shown) [HMMT, 2-hydroxymethyl-menthone] the value was “excellent noxious-insect repelling effect and durability”.
On to `CC(C)(C)C1CCC(O)C(CO)C1` (stereo not shown) [2-hydroxymethyl-4-(t-butyl)-cyclohexanol], for which the “noxious-insect repelling effect and durability (result in words)” value was “excellent noxious-insect repelling effect and durability”.
The same measure, in the same setting: with `CCC1(CO)CCCCC1O` (stereo not shown) [2-hydroxymethyl-2-ethyl-cyclohexanol] the entry was “excellent noxious-insect repelling effect and durability”.
